As usually defined, the IC50 is the concentration needed to halve the response being measured. Lower therefore signals greater potency.

IC50 data for 13 compounds are collected here from patent US20110129542A1, “SUBSTITUTED AZEPINE- AND DIAZEPINE-SULFONAMIDES USEFUL TO INHIBIT 11BETA-HYDROXYSTEROID DEHYDROGENASE TYPE-1” (Schering Corporation, priority 2007, published 2011).

Each structure is given as a SMILES string.

The target in assay [1] is Mouse 11-β-HSD1 (Mus musculus, UniProt P50172). Put plainly: Measurement of 11β-HSD1 activity (SPA, 3H-cortisone, membrane), mouse enzyme. The class given is biochemical. The settings on record: 125 nM 3H-cortisone, 3 mM NADPH, 0.5 μg membrane, room temperature 1 hr. As to the method: (§1) Measurement of 11β-HSD1 activity
Mouse 11-β-HSD1, sequence (P50172 whole entry): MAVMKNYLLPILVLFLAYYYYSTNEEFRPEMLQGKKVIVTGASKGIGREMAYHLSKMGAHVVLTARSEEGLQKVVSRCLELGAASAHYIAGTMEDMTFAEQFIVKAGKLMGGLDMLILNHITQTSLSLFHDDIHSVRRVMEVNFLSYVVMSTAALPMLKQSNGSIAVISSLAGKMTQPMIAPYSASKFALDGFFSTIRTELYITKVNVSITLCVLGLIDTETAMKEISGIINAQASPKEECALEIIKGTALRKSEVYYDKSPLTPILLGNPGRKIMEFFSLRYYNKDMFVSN
(§2) The reaction was incubated at room temperature for 1 hr before it was stopped by addition of […] containing 20 mM NaPO4 pH 7.5, 30 μM 18β-glycyrrhetinic acid, 1 μg/ml monoclonal anti-cortisol antibody (Biosource) and 2 mg/ml anti-mouse antibody coated scintillation proximity assay (SPA) beads (Amersham Bioscience). The mixture was incubated at room temperature for 2 hrs with vigorous shaking and analyzed on TopCount scintillation counter.

Assay [2] has as its target Human 11-β-HSD1 (Homo sapiens, UniProt P28845). The assay can be described thus: Measurement of 11β-HSD1 activity (SPA, 3H-cortisone, membrane), human enzyme. The class given is biochemical. The settings on record: 125 nM 3H-cortisone, 3 mM NADPH, 0.5 μg membrane, room temperature 1 hr. The protocol: as §1, §2

Human 11-β-HSD1, sequence (P28845 whole entry): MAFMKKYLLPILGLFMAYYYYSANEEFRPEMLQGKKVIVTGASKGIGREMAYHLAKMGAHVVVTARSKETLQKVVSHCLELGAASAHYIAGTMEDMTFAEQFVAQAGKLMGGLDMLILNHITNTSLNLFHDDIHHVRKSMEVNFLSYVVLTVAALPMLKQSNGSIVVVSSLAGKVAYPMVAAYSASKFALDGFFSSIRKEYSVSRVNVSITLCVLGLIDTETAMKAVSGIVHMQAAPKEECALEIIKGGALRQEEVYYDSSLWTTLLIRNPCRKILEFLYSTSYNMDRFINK

As for `CC(C)(C)c1ccc(S(=O)(=O)N2CCCN(C3CCCC3)CC2)cc1` [Compound 43], the half-maximal inhibitory concentration (IC50) in assay [1] was 263 nM; in assay [2] it was 30 nM.
On the same counts, the results for `CC(=O)N1CCCN(S(=O)(=O)c2ccc(C(C)(C)C)cc2)CC1` [Compound 44] are 2540 nM and 254 nM.
As for `COc1ccc(S(=O)(=O)N2CC=C(c3ccccc3)CCC2)cc1` [Compound 40], the values for the IC50 in assay [1] and in assay [2] were 1550 nM and 178 nM, respectively.
On the same counts, the results for `CC(C)(C)c1ccc(S(=O)(=O)N2CCCC(O)CC2)cc1` (centres unmarked) [Compound 11] are 629 nM and 466 nM.
Regarding `CC(C)(C)c1ccc(S(=O)(=O)N2CCCNCC2)cc1` [Compound 45], the IC50 is 2300 nM in assay [1] and 3740 nM in assay [2].
On the same counts, the results for `O=S(=O)(c1ccc(Cl)cc1)N1CCCC(O)(c2ccccc2)CC1` (centres unmarked) [Compound 6] are 2720 nM and 1070 nM.
On the same counts, the results for `COc1ccc(S(=O)(=O)N2CCCC(O)(c3ccccc3)CC2)cc1` (centres unmarked) [Compound 1] are 1980 nM and 1320 nM.
Take `COC1CCCN(S(=O)(=O)c2ccc(C(C)(C)C)cc2)CC1` (centres unmarked) [Compound 12]: the values for the half-inhibitory concentration (IC50) in assay [1] and in assay [2] were 165 nM and 7 nM, respectively.
`COC1(C)CCCN(S(=O)(=O)c2ccc(C(C)(C)C)cc2)CC1` (centres unmarked) [Compound 18]: the values for the IC50 in assay [1] and in assay [2] were 57 nM and 3 nM, respectively.
On the same counts, the results for `CC(C)(C)c1ccc(S(=O)(=O)N2CCCN(C3CC4CCC3C4)CC2)cc1` (centres unmarked) [Compound 47] are 102 nM and 19 nM.
On the same counts, the results for `CC(C)(C)OC(=O)N1CCCN(S(=O)(=O)c2ccc(C(C)(C)C)cc2)CC1` [Compound 46] are 2760 nM and 256 nM.
Regarding `COc1ccc(S(=O)(=O)N2CCC=C(c3ccccc3)CC2)cc1` [Compound 34], the half-maximal inhibitory concentration (IC50) in assay [1] worked out at 1880 nM; in assay [2], 58 nM.
The like results for `CC(=O)c1ccc(S(=O)(=O)N2CCCC(C)(O)CC2)cc1` (centres unmarked) [Compound 29] were, in that order, greater than 10000 nM and 5250 nM.
